Nine compounds from US20260070887A1 (Shenzhen Zhongge Biological Technology Co., Ltd., priority 2022, published 2026) can be followed below.

Assay [1] deals with HT-29 cells. The assay is described as follows: HT-29 cell proliferation (Cell Titer-Glo, 6 days). Type of assay: cell-based. The method, boiled down: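 Cells seeded at 4,170 cells/mL in McCoy's 5a with 10% FBS, compound added from DMSO stock, grown 6 days at 37 °C, 5% CO2. Cell Titer-Glo luminescence; inhibition vs 0.3% DMSO control, IC50 by nonlinear regression.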
Background: In ATP-based viability assays light output follows the ATP content of the culture.

Assay [2] deals with OVCAR-3 cells. The experiment in a line: OVCAR-3 cell proliferation (Cell Titer-Glo, 10 days). Type of assay: cell-based, human. A digest of the protocol:
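400 cells per well were seeded onto pre-dispensed compound (final 0.12 nM to 10 μM) in RPMI-1640 with 20% FBS and insulin, then co-cultured for 10 days. Viability was read as Cell Titer-Glo luminescence, inhibition was taken against 0.1% DMSO control, and IC50 came from nonlinear concentration-inhibition regression.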

Assay [3] concerns A2780 cells. The assay is described as follows: A2780 cell anti-proliferation assay. It is filed as cell-based. The conditions noted are these: 6 days, Cell Titer-Glo. Here is the method: A2780 (ECACC) cells were cultured in RPMI-1640 complete medium (Gibco, A1049101) containing 10% fetal bovine serum (Gibco, 10099-141C), 100 U penicillin and 100 μg/mL streptomycin (Gibco, 15140-122). The Promega kit Cell Titer-Glo (Promega: G7572) was used in this method for test.
A2780 cells were cultured in T75 cell flasks (Corning, 430641) and the cells were placed in a 37° C., 5% CO2 incubator. Cells were passaged when reaching a cell density of 70%-80%, once every five days. To perform the experiment, the test compounds were dissolved in DMSO to prepare a 10 mM stock solution, and the test compounds were added to the 384-well cell test plate (Corning, 3765) at the predetermined concentration (19.5 nM-[…]) using ECHO. A2780 cells were digested and 4000 cells (60 μL medium) were seeded per well in the test plate. The 384-well plate was then centrifuged at 500 rpm for 1 minute, and then placed in a 37° C., 5% CO2 incubator for 6 days of cultivation. Six days later, the cell culture plate was equilibrated for 10 minutes at room temperature, 25 μL of Cell Titer-Glo was added to each well, and the mixture was shaken and mixed well and let stand for 5 minutes. The luminescence values for samples in various wells were read using a microplate reader in Luminescence mode.
The percentage of inhibition of A2780 cell proliferation by the test compound at each concentration was calculated by comparing with the values of the control group (0.2% DMSO). The IC50 values of the compounds were obtained by concentration-inhibition rate nonlinear regression analysis of the test compounds using GraphPad Prism 9.

Molecules are shown by their SMILES. Like-named read-outs stand apart in the source and are kept apart here. Some results are limits rather than exact numbers.

In the case of `COc1ccc(NC(=O)c2ccc(NS(=O)(=O)CCO)cc2N2CCC(=C(F)F)CC2)c2cc3n(c12)CC(C)(C)OC3` [Example 465, 2-(4-(difluoromethylene)piperidin-1-yl)-4-((2-hydroxyethyl)sulfonamido)-N-(6-methoxy-3,3-dimethyl-3,4-dihydro-1H-[1,4]oxazinyl[4,3-a]indol-9-yl)benzamide], the IC50 was not above 200 nM in assay [1], not above 50 nM in assay [2] and more than 10000 nM in assay [3].

For `N#Cc1ccc(NC(=O)c2ccc(NS(=O)(=O)CCO)cc2N2CCC3(CC2)CC3)c2cc3n(c12)CCC(F)(F)C3` [Example 379], the IC50 in assay [1] was not above 200 nM; in assay [2] it was not above 50 nM; in assay [3] it was 5300 nM.

In the case of `CC1(C)Cn2c(nc3c(NC(=O)c4ccc(NS(=O)(=O)CCO)cc4N4CCC(=C(F)F)CC4)cccc32)CO1` [Compound 394, 2-(4-(difluoromethylene)piperidin-1-yl)-N-(3,3-dimethyl-3,4-dihydro-1H-benzo[4,5]imidazo[2,1-c][1,4]oxazin-9-yl)-4-((2-hydroxyethyl)sulfonamido)benzamide], the IC50 in assay [1] (Homo sapiens, HT-29, 144 h) was not above 200 nM; in assay [2] (Homo sapiens, OVCAR-3, 240 h), not above 50 nM; in assay [3] (Homo sapiens, A2780, 144 h) it was more than 10000 nM.

For `CC1Cn2c(cc3c(NC(=O)c4ccc(NS(=O)(=O)CCO)cc4N4CCC5(CC4)CC5)cccc32)C(C)O1` (single isomer, unassigned) [Compound 312-P2A, N-(1,3-dimethyl-3,4-dihydro-1H-[1,4]oxazino[4,3-a]indol-9-yl)-4-((2-hydroxyethyl)sulfonamido)-2-(6-azaspiro[2.5]oct-6-yl)benzamide], the IC50 is not above 200 nM in assay [1] (Homo sapiens, HT-29, 144 h); not above 50 nM in assay [2]; 6500 nM in assay [3].

On to `O=C(Nc1ccc(F)c2c1cc1n2CCOC1)c1ccc(NS(=O)(=O)CCO)cc1N1CCC(=C(F)F)CC1` [Example 321, 2-(4-(difluoromethylene)piperidin-1-yl)-N-(6-fluoro-3,4-dihydro-1H-[1,4]oxazino[4,3-a]indol-9-yl)-4-((2-hydroxyethyl)sulfonamido)benzamide], for which the IC50 in assay [1] (Homo sapiens, HT-29, 144 h) was 200 to 1000 nM; in assay [2] (Homo sapiens, OVCAR-3, 240 h), 50 to 500 nM; in assay [3] (Homo sapiens, A2780, 144 h), more than 10000 nM.

As for `CC1(C)Cn2c(cc3c(NC(=O)c4ccc(NS(=O)(=O)CCO)cc4N4CCC(=C(F)F)CC4)ccc(C#N)c32)CO1` [Compound 393, N-(6-cyano-3,3-dimethyl-3,4-dihydro-1H-[1,4]oxazino[4,3-a]indol-9-yl)-2-(4-(difluoromethylene)piperidin-1-yl)-4-((2-hydroxyethyl)sulfonamido)benzamide], the IC50 was not above 200 nM in assay [1] (Homo sapiens, HT-29, 144 h); 50 to 500 nM in assay [2] (Homo sapiens, OVCAR-3, 240 h); more than 10000 nM in assay [3] (Homo sapiens, A2780, 144 h).

With `CC1Cn2c(cc3c(NC(=O)c4ccc(NS(=O)(=O)CCO)cc4N4CCC5(CC4)CC5)cccc32)C(C)O1` (single isomer, unassigned) [Compound 312-P3, N-(1,3-dimethyl-3,4-dihydro-1H-[1,4]oxazino[4,3-a]indol-9-yl)-4-((2-hydroxyethyl)sulfonamido)-2-(6-azaspiro[2.5]oct-6-yl)benzamide], the IC50 in assay [1] is not above 200 nM; in assay [2], not above 50 nM; in assay [3] (Homo sapiens, A2780, 144 h), more than 10000 nM.

Regarding `CC1(C)Cn2c(nc3c(NC(=O)c4ccc(NS(=O)(=O)CCO)cc4N4CCC5(CC4)CC5)cccc32)CO1` [Compound 391, N-(3,3-dimethyl-3,4-dihydro-1H-benzo[4,5]imidazo[2,1-c][1,4]oxazin-9-yl)-4-((2-hydroxyethyl)sulfonamido)-2-(6-azaspiro[2.5]octan-6-yl)benzamide], the IC50 in assay [1] (Homo sapiens, HT-29, 144 h) is not above 200 nM; in assay [2] (Homo sapiens, OVCAR-3, 240 h), not above 50 nM; in assay [3] (Homo sapiens, A2780, 144 h), more than 10000 nM.

On to `O=C(Nc1cccc2c1cc1n2CCOC1)c1ccc(NS(=O)(=O)CCO)cc1N1CCC2(CC1)CC2` [Example 235, N-(3,4-dihydro-1H-[1, 4]oxazino[4,3-a]indol-9-yl)-4-(2-hydroxyethylsulfonamido)-2-(6-azaspiro[2.5]octan-6-yl)benzamide], for which the IC50 in assay [1] (Homo sapiens, HT-29, 144 h) is not above 200 nM; in assay [2] (Homo sapiens, OVCAR-3, 240 h) it was not above 50 nM; in assay [3] (Homo sapiens, A2780, 144 h), more than 10000 nM.

By IC50 is commonly meant the concentration that inhibits the measured activity by half. Read a low IC50 as inhibition by little substance.
